Test results: ChEMBL document CHEMBL1201862, “PubChem BioAssay data set” (2004)
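96-well plates; 48 h exposure; 5 concentrations. Endpoints by linear interpolation between flanking doses. Not reached: highest tested concentration assigned. GI50 is the concentration that inhibits growth by half.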 Calls of active or inactive are those of the source. No stated cut-off is given here; in the data, active = GI50 up to about 1.1 µM and inactive = higher.

What was measured:
Assay in all cases: NCI tumour cell line growth inhibition, 48 h
[1] = test system: HOP-92
[2] = test system: UO-31
[3] = test system: MCF7
[4] = test system: NCI-H23
[5] = test system: UACC-62
[6] = test system: A549
[7] = test system: HT-29
[8] = test system: SK-MEL-28
[9] = test system: IGROV-1
[10] = test system: CCRF-CEM
[11] = test system: RPMI-8226
[12] = test system: T47D
[13] = test system: PC-3
[14] = test system: HCT-116
[15] = test system: OVCAR-3
[16] = test system: OVCAR-8
[17] = test system: TK-10
[18] = test system: UACC-257
[19] = test system: K562
[20] = test system: SK-MEL-2

Compound | GI50 [1] | GI50 [2] | GI50 [3] | GI50 [4] | GI50 [5] | GI50 [6] | GI50 [7] | GI50 [8] | GI50 [9] | GI50 [10] | GI50 [11] | GI50 [12] | GI50 [13] | GI50 [14] | GI50 [15] | GI50 [16] | GI50 [17] | GI50 [18] | GI50 [19] | GI50 [20]
c1ccc2cc(NCNc3ccc4ccccc4c3)ccc2c1 | 1.27 µM (inactive) | 13.7 µM (inactive) | 11.8 µM (inactive) | 12.2 µM (inactive) | 14.7 µM (inactive) | 18.3 µM (inactive) | 19 µM (inactive) | 34.8 µM (inactive) | 7.52 µM (inactive) | 11.8 µM (inactive) | 6.1 µM (inactive) | 15.7 µM (inactive) | 15.5 µM (inactive) | 16.7 µM (inactive) | 5.69 µM (inactive) | 17.5 µM (inactive) | 21.7 µM (inactive) | 8.73 µM (inactive) | 0.951 µM (active) | 8.17 µM (inactive)
N[C@H]1c2c(Br)sc(Br)c2C(=O)[C@H]1O | 21.5 µM (inactive) | 20.3 µM (inactive) | 13.3 µM (inactive) | 3.64 µM (inactive) | 6.79 µM (inactive) | 24.9 µM (inactive) | 11.2 µM (inactive) | 10.3 µM (inactive) | 14 µM (inactive) | 2.72 µM (inactive) | 27.4 µM (inactive) | 21.9 µM (inactive) | 28.5 µM (inactive) | 16.4 µM (inactive) | 7.36 µM (inactive) | 12.9 µM (inactive) | 96.8 µM (inactive) | 14.2 µM (inactive) | 3.44 µM (inactive) | 23.9 µM (inactive)
C=CCSC1=N/C(=C\c2ccc(OC)cc2)C(=O)N1CC=C | 28.8 µM (inactive) | 34.3 µM (inactive) | 28.4 µM (inactive) | 28.4 µM (inactive) | 30.3 µM (inactive) | 30.9 µM (inactive) | 20.2 µM (inactive) | 42.5 µM (inactive) | > 100 µM (inactive) | 16.6 µM (inactive) | 15.5 µM (inactive) | 16.2 µM (inactive) | 20.8 µM (inactive) | 25.4 µM (inactive) | 45.9 µM (inactive) | 36.2 µM (inactive) | 45.2 µM (inactive) | 23.2 µM (inactive) | 23.7 µM (inactive) | 29.6 µM (inactive)
CC1=C(/C=C/C(C)=C/C=C/C(C)=C/C(=O)O)C(C)(C)CCC1 [TRETINOIN] | > 63.8 µM (inactive) | > 64.3 µM (inactive) | 29 µM (inactive) | 55.3 µM (inactive) | > 64.3 µM (inactive) | 39.9 µM (inactive) | 47.6 µM (inactive) | 53.8 µM (inactive) | > 78.9 µM (inactive) | 44.3 µM (inactive) | 1.34 µM (inactive) | 2.55 µM (inactive) | 39.6 µM (inactive) | 48.6 µM (inactive) | 46.6 µM (inactive) | > 65.3 µM (inactive) | 71.8 µM (inactive) | 62.4 µM (inactive) | 39.4 µM (inactive) | 28.9 µM (inactive)
CC(=O)Nc1ccc(S(=O)(=O)c2nnc(NC(C)=O)s2)cc1 | > 100 µM (inactive) | > 100 µM (inactive) | > 100 µM (inactive) | > 100 µM (inactive) | > 100 µM (inactive) | > 100 µM (inactive) | > 100 µM (inactive) | > 100 µM (inactive) | > 100 µM (inactive) | > 100 µM (inactive) | > 100 µM (inactive) | > 100 µM (inactive) | 0.401 µM (active) | > 100 µM (inactive) | > 100 µM (inactive) | > 100 µM (inactive) | > 100 µM (inactive) | > 100 µM (inactive) | > 100 µM (inactive) | > 100 µM (inactive)
COc1ccc(-n2cnc3c(NC(CCSC)C(=O)O)ncnc32)cc1 (stereo not given) | 74.1 µM (inactive) | > 100 µM (inactive) | > 100 µM (inactive) | > 100 µM (inactive) | > 100 µM (inactive) | > 100 µM (inactive) | > 100 µM (inactive) | > 100 µM (inactive) | > 100 µM (inactive) | > 100 µM (inactive) | > 100 µM (inactive) | > 100 µM (inactive) | > 100 µM (inactive) | > 100 µM (inactive) | > 100 µM (inactive) | > 100 µM (inactive) | > 100 µM (inactive) | > 100 µM (inactive) | > 100 µM (inactive) | > 100 µM (inactive)
CC1=C(C(=O)c2ccccc2)C23C(=O)N(c4ccccc4)C(=O)C2=C(O)C=CC3(O)N1 (stereo not given) | 17.5 µM (inactive) | 12.2 µM (inactive) | 38.3 µM (inactive) | 44.2 µM (inactive) | 20.1 µM (inactive) | 50.2 µM (inactive) | 13.6 µM (inactive) | 17.3 µM (inactive) | 25.6 µM (inactive) | 35.1 µM (inactive) | 29.8 µM (inactive) | 37.2 µM (inactive) | 28.4 µM (inactive) | 37.9 µM (inactive) | 21.4 µM (inactive) | 34 µM (inactive) | 67.1 µM (inactive) | 44.5 µM (inactive) | 10.9 µM (inactive) | 21 µM (inactive)
